Experimental data as given in patent US20230372433A1, “NANOPARTICLE FOR ANTI-CANCER PEPTIDES AND USES THEREOF” (KING'S COLLEGE LONDON, priority 2020, published 2023).
Where two headings read alike, the source gives them in different places.

Columns and labels:
[1] = ANTS/DPX liposome leakage assay, 3POPC/1POPG vesicles; type: biochemical; details: for Peptide Concentration-induced 50% ANTS/DPX leakage at pH 4.8 (L/P) 3POPC/1POPG Vesicle / Peptide Concentration-induced 50% ANTS/DPX leakage at pH 7.4 (L/P) 3POPC/1POPG Vesicle: 0.5 mM vesicles
Procedure: (§1) In brief, 0.5 mM POPC vesicles (grey) or POPC:POPG vesicles (ratio 3:1, black) were incubated with peptide concentrations of 0, 0.02, 0.04, 0.08, 0.16, 0.32, 0.64, 1.25, 2.5, 5, 10, and 20 μM in each A) hydrochloric acid-adjusted phosphate buffered saline (1X, pH 4.8) and B) phosphate buffered saline (1X, pH 7.4).
(§2) The lipids 1-palmitoyl-2-oleoyl-sn-glycero-3-phosphocholine (POPC), 1-palmitoyl-2-oleoyl-snglycero-3-phospho-(1′-rac-glycerol) (POPG) were purchased from Avanti Polar Lipids and dissolved in chloroform. Large unilamellar vesicles (LUVs) were produced by extrusion through 100 nm pore filter using an extruder and filters purchased from Avanti Polar Lipids.
(§3) 5 mM ANTS (8-aminonaphthalene-1,3,6-trisulfonic acid, disodium salt) and 12.5 mM DPX (p-xylene-bis-pyridinium bromide) were entrapped in 0.1 μm diameter extruded vesicles with lipids. Gel filtration chromatography using a Sephadex G-100 (GE Healthcare Life Sciences Inc) was used to remove external free ANTS/DPX from LUVs with entrapped contents. LUVs were diluted to 0.5 mM and used to measure the leakage activity by addition of aliquots of peptides. Leakage was measured after 3 h incubation. 10% Triton was used as the positive control to measure the maximum leakage of the vesicle. Fluorescence emission spectra were recorded using excitation and emission wavelength of 350 nm and 510 nm for ANTS/DPX using a BioTek Synergy H1 Hybrid Multi-Mode Reader.
(§4) Table 4 illustrates peptide concentration-induced 50 ANTS/DPX liposome leakage. 0.5 mM POPC and 3POPC/1POPG vesicles were fixed and incubated with titrated peptide concentration (0, 0.02, 0.04, 0.08, 0.16, 0.32, 0.64, 1.25, 2.5, 5, 10, and 20 μM) each in phosphate buffered saline (1X, pH 7.4) and hydrochloric acid-adjusted phosphate buffered saline (1X, pH 4.8). The values are shown as lipid per peptide. IN-terminus is free, C-terminus: —W—NH2.

[2] = tested on: MCF-10A (human breast epithelial cell); assay: cells
From the text: HMLER (human mammary endothelial cancer cells), HMLER-shEcad (human mammary endothelial cancer stem cells), and MCF-10A (healthy human mammary endothelial) cells were maintained in Mammary Epithelial Cell Growth Medium (MEGM) with supplements and growth factors: bovine pituitary extract (BPE), hydrocortisone, human epidermal growth factor (hEGF), insulin, and gentamicin/amphotericin-B. HEK293T (human embryonic kidney cell), and U2OS (homo sapiens bone osteosarcoma) cells were maintained in Dulbecco's Modified Eagle's Medium (DMEM) with a final concentration of 10% fetal bovine serum. The cells were grown in T75 flask at 310 K in a humidified atmosphere containing 5% CO2.
The colourimetric MTT (3-(4,5-dimethylthiazol-2-yl)-2,5-diphenyltetrazolium bromide) assay was used to determine the toxicity of the anti-cancer peptides and conventional anti-cancer drugs. 5×10^3 cells were seeded in each well of a 96-well microplate. The cells were incubated overnight. Elevated concentrations of the compounds (0, 0.1, 0.2, 0.4, 0.8, 1.6, 3.1, 6.3, 12.5, 25, 50 and 100 μM) were added and incubated for 72 hr with a total volume 200 μL. The stock solutions of the compounds were prepared as 5 mM solutions in DMSO and diluted using media or in pure water. The final concentration of DMSO in each well was either 0.5% or 0% and this amount was present in the untreated control. After 72 hr, 20 μL of a 4 mg/mL solution of MTT in PBS was added to each well, and the plate was incubated for an additional 4 hr. The MEGM/MTT mixture was aspirated and 100 μL of DMSO was added to dissolve the resulting purple formazan crystals. The absorbance of the solutions in each well was read at 550 nm wavelength. Absorbance values were normalized to either DMSO-containing or non DMSO-containing control wells and plotted as concentration of test compound versus % cell viability. ICso values were interpolated from the resulting dose dependent curves.
The peptides were screened against several different human cell lines and their cytotoxicity were determined. Cell lines utilised include MCF-10A (human breast epithelial cell), HMLER (human breast cancer bulk cell), HMLER-shEcad (human breast cancer stem cell), HEK293T (human embryonic kidney cell), and U2OS (human bone osteosarcoma).

[3] = Tryptophan fluorescent binding assay, 3POPC/1POPG vesicles; details: 50 μM peptide, PBS pH 7.4
Procedure: (§5) In brief, 50 μM peptides were fixed and incubated with titrated POPC vesicles (black) or 3POPC/1POPG vesicles (grey) at concentrations of 0, 12.5, 25, 50, 100, 250, 500, 1000, 2500, and 5000 μM in phosphate buffered saline (1X, pH 7.4). The lipid concentration that causes 50% peptide binding was determined using a tryptophan fluorescent binding assay and the values are shown as lipid per peptide.
as §2
(§6) Peptides (50 μM) and POPC/POPG LUVs (600 μM) were prepared in 10 mM phosphate buffer (pH 7.0). The solutions were incubated and measured after 60 minutes. Excitation was fixed at 280 nm (slit 9 nm) and emission was collected from 300 to 450 nm (slit 9 nm). The spectra were recorded using a Synergy H1 Hybrid Multi-Mode Reader (FIG. 3A) and Cytation™ 5 Cell Imaging Multi-Mode Reader (FIG. 2) from BioTek and were averaged over 3 scans.
(§7) Table 3 illustrates the lipid concentration-induced 50% peptide binding onto a liposome. 50 μM peptide was fixed and incubated with titrated lipid (POPC vesicles or 3POPC/1POPG vesicles) at concentrations of 0, 12.5, 25, 50, 100, 250, 500, 1000, 2500, and 5000 μM in phosphate buffered saline (1X, pH 7.4). The lipid concentration that causes 50% peptide binding was determined using tryptophan fluorescent binding assay and the values are shown as lipid per peptide. IN-terminus is free, C-terminus: —W—NH2.

[4] = Tryptophan fluorescent binding assay, POPC vesicles; details: 50 μM peptide, PBS pH 7.4
Procedure: as §5, §2, §6, §7

[5] = tested on: HEK293T (human embryonic kidney cell); assay: MTT cytotoxicity assay, HEK293T; type: cell-based; details: 72 hr, MTT; read-out: IC50 HEK293T
[6] = tested on: HMLER (human breast cancer bulk cell); assay: MTT cytotoxicity assay, HMLER; type: cell-based; details: 72 hr, MTT; read-out: IC50 HMLER
[7] = tested on: U2OS (human bone osteosarcoma); assay: MTT cytotoxicity assay, U2OS; type: cell-based; details: 72 hr
[8] = ANTS/DPX liposome leakage assay, POPC vesicles; type: biochemical; details: 0.5 mM vesicles
Procedure: as §1, §2, §3, §4

[9] = tested on: HMLER-shEcad (human breast cancer stem cell); assay: MTT cytotoxicity assay, HMLER-shEcad; type: cell-based; details: 72 hr, MTT; read-out: IC50 HMLER-shEcad
[10] = read-out: IC50 MCF-10A, 72 hr, MTT

| Compound | Peptide Concentration-induced 50% ANTS/DPX leakage at pH 4.8 (L/P) 3POPC/1POPG Vesicle ([1]; pH 4.8) | Peptide Concentration-induced 50% ANTS/DPX leakage at pH 7.4 (L/P) 3POPC/1POPG Vesicle [1] | liposome leakage activity from anionic vesicle at pH 4.8 ([1]; compared with zwitterionic vesicle, pH 4.8) | IC50 [2] | Lipid Concentration-induced 50% Peptide Binding (L/P) 3POPC/1POPG Vesicle [3] | Lipid Concentration-induced 50% Peptide Binding (L/P) POPC Vesicle [4] | IC50 [5] | IC50 [6] | IC50 [7] | Peptide Concentration-induced 50% ANTS/DPX leakage at pH 4.8 (L/P) POPC Vesicle [8] | Peptide Concentration-induced 50% ANTS/DPX leakage at pH 7.4 (L/P) POPC Vesicle [8] | IC50 [9] | IC50 [2, 10] |
| --- | --- | --- | --- | --- | --- | --- | --- | --- | --- | --- | --- | --- | --- |
| CC(C)C[C@H](NC(=O)CN)C(=O)N[C@@H](CC(C)C)C(=O)N[C@@H](CC(=O)O)C(=O)N[C@@H](CC(C)C)C(=O)N[C@@H](CC(C)C)C(=O)N[C@@H](CCC(=O)O)C(=O)N[C@@H](CC(C)C)C(=O)N[C@@H](CC(C)C)C(=O)N[C@@H](CC(C)C)C(=O)N[C@@H](CCCCN)C(=O)N[C@@H](C)C(=O)N[C@@H](C)C(=O)NCC(=O)N[C@@H](Cc1c[nH]c2ccccc12)C(N)=O [DEK] | 469 L/P | 773 L/P | relatively higher liposome leakage activity | ≥ 100 µM | 1.67 L/P | 1.50 L/P | 6.8 ± 0.85 µM | 1.14 ± 0.52 µM | 19.9 ± 2.65 µM | 10 L/P | 747 L/P | 0.7 ± 0.07 µM |  |
| CC(C)C[C@H](NC(=O)CN)C(=O)N[C@@H](CC(C)C)C(=O)N[C@@H](CCC(=O)O)C(=O)N[C@@H](CC(C)C)C(=O)N[C@@H](CC(C)C)C(=O)N[C@@H](CCC(=O)O)C(=O)N[C@@H](CC(C)C)C(=O)N[C@@H](CC(C)C)C(=O)N[C@@H](CC(C)C)C(=O)N[C@@H](CCC(=O)O)C(=O)N[C@@H](C)C(=O)N[C@@H](C)C(=O)NCC(=O)N[C@@H](Cc1c[nH]c2ccccc12)C(N)=O [EEE] | 28 L/P | 346 L/P |  | ≥ 100 µM | 4.50 L/P | 1.33 L/P | 50 µM | 6.25 ± 1.77 µM | 78.8 ± 5.3 µM | 35 L/P | 143 L/P | 10.6 ± 3.46 µM |  |
| GLDDLAKLLLKLAG [25B2, reference compound] |  |  |  |  |  |  | 25.2 ± 2.19 µM | 8.36 ± 0.61 µM | 54 ± 8.43 µM |  |  | 11.7 ± 0.49 µM | 26.7 ± 3.33 µM |
| GLLDLLHLLLHAAG [DHH] | 98 L/P | 692 L/P |  |  | 0.28 L/P | 0.67 L/P | 6.4 ± 0.42 µM | 21.4 ± 2.47 µM | 55.9 ± 18.9 µM | 106 L/P | 684 L/P | 11.9 ± 0.14 µM |  |
| GLLELLHLLLHAAG [EHH] | 80 L/P | 981 L/P |  |  | 0.69 L/P | 0.94 L/P | 5.9 ± 0.14 µM | 25.4 ± 2.76 µM |  | 386 L/P | 1043 L/P | 16.1 ± 3.18 µM |  |
| GLLHLLELLLHAAG [HEH] | 24 L/P | 505 L/P |  |  | 3.50 L/P | 0.88 L/P | 8.8 ± 1.7 µM | 28.6 ± 10.8 µM |  | 173 L/P | 995 L/P | 11 ± 1.06 µM |  |
| GLLHLLELLLKAAG [HEK] | 411 L/P | 386 L/P |  |  | 0.46 L/P | 0.44 L/P | 6.95 ± 1.63 µM | 2.35 ± 1.06 µM |  | 97 L/P | 755 L/P | 3.45 ± 2.19 µM | 29.8 ± 7.35 µM |
| GLLHLLHLLLEAAG [HHE] | 113 L/P | 411 L/P |  |  | 0.75 L/P | 1.00 L/P | 18.4 ± 3.75 µM | 16.7 ± 2.26 µM | 53.2 ± 5.3 µM | 143 L/P | 842 L/P | 10.8 ± 0.78 µM |  |
| GLLHLLHLLLHAAG [HHH] | 50 L/P | 469 L/P |  |  | 0.82 L/P | 0.46 L/P | 30.6 ± 4.81 µM | 21.1 ± 6.93 µM |  | 173 L/P | 1133 L/P | 9.5 ± 0.99 µM | 79 ± 11.3 µM |
